Test [1] is described as follows: Inhibition of V-ATPase-driven proton transport in membrane vesicles derived from chicken osteoclasts (cOc).
A short description of test [2]: Inhibition of V-ATPase-driven proton transport in membrane vesicles derived from bovine chromaffin granules (bCG).
Test [3] can be described thus: Inhibition of V-ATPase-driven proton transport in membrane vesicles derived from bovine chromaffin granules (bCG).
Test [4] is described as follows: Inhibition of V-ATPase-driven proton transport in membrane vesicles derived from chicken osteoclasts (cOc).

Take `CO/C1=C\C(C)=C\[C@@H](C)C(=O)[C@@H](C)C/C(C)=C/C=C/[C@H](OC)[C@@H]([C@@H](C)[C@@H](O)[C@H](C)[C@@]2(O)C[C@@H](C(=O)Oc3ccccc3)[C@H](C)[C@@H](C(C)C)O2)OC1=O` [2-[3-(3,15-Dimethoxy-7,9,11,13-tetramethyl-10,16-dioxo-oxacyclohexadeca-4,6,12,14-tetraen-2-yl)-2-hydroxy-1-methyl-butyl]-2-hydroxy-6-isopropyl-5-methyl-tetrahydro-pyran-4-carboxylic acid phenyl ester]: the half-maximal inhibitory concentration (IC50) in test [1] and in test [2] was more than 10 µM each time.

Regarding `CO/C1=C\C(C)=C\[C@@H](C)C(=O)[C@@H](C)C/C(C)=C/C=C/[C@H](OC)[C@@H]([C@@H](C)[C@@H](O)[C@H](C)C(=O)O)OC1=O` [(2S,3R,4S)-4-((4E,6E,12E,14Z)-(2R,3S,9S,11R)-3,15-Dimethoxy-7,9,11,13-tetramethyl-10,16-dioxo-oxacyclohexadeca-4,6,12,14-tetraen-2-yl)-3-hydroxy-2-methyl-pentanoic acid], the IC50 in test [3] and in test [4] was more than 10 µM in each case.

`COC(=O)[C@@H](C)[C@H](O)[C@H](C)[C@H]1OC(=O)/C(OC)=C/C(C)=C/[C@@H](C)C(=O)[C@@H](C)C/C(C)=C/C=C/[C@@H]1OC` [(2S,3R,4S)-4-((4E,6E,12E,14Z)-(2R,3S,9S,11R)-3,15-Dimethoxy-7,9,11,13-tetramethyl-10,16-dioxo-oxacyclohexadeca-4,6,12,14-tetraen-2-yl)-3-hydroxy-2-methyl-pentanoic acid methyl ester]: the IC50 in test [3] and in test [4] was more than 10 µM throughout.

With `CO/C1=C\C(C)=C\[C@@H](C)[C@@H](O)[C@@H](C)C/C(C)=C/C=C/[C@H](OC)[C@@H]([C@@H](C)[C@@H](O)[C@H](C)C(=O)O)OC1=O` [(2S,3R,4S)-3-Hydroxy-4-((4E,6E,12E,14Z)-(2R,3S,9S,10S,11R)-10-hydroxy-3,15-dimethoxy-7,9,11,13-tetramethyl-16-oxo-oxacyclohexadeca-4,6,12,14-tetraen-2-yl)-2-methyl-pentanoic acid], the IC50 in test [3] and in test [4] was more than 10 µM in each case.

Source of the values: BindingDB's records for doi:10.1021/jm9707838 (Smithkline Beecham, 1998).
